Results published in patent US10047051B2, “Substituted pyridines and method of use” (AbbVie S.á{acute over (.)}r.l., priority 2015, dated 2018).

Key:
CFTR ΔF508 mutant = biological target: T1, CFTR ΔF508 mutant (Homo sapiens, UniProt P13569, DEL508-508); experiment: YFP-halide influx assay for the CFTR-ΔF508 mutation (CFBE41o- cells); type: cell-based; settings: forskolin 10.67 μM; for EC50: from (1−F/F0) vs concentration plot
T1 construct: expressed in transfected cells; host or cells: CFBE41o- cells, adenoviral transduction
Summary of the method: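 CFBE41o- cells transduced with adenovirus expressing CFTR ΔF508 and halide-sensitive YFP H148Q/I152L/F47L, then held 24 h at 27° C or with a CFTR modulator 24 h at 37° C. Iodide-induced quench recorded 2 min; EC50 from (1−F/F0) at 36 s versus concentration.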

CFTR G551D mutant = biological target: T2, CFTR G551D mutant (Homo sapiens, UniProt P13569, G551D); experiment: YFP-halide influx assay for the CFTR-G551D mutation (HEK293 cells); type: cell-based; settings: forskolin 10.67 μM
T2 construct: expressed in transfected cells; host or cells: HEK293 cells, reverse transfection with plasmids
Summary of the method: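 HEK293 cells reverse-transfected with CFTR G551D and halide-sensitive YFP (H148Q/I152L/F47L), expressed 24 h at 37 °C. YFP fluorescence quenching recorded for 7 s after I⁻ injection. Response = 1−F/F0; EC50 derived from 1−F/F0 vs compound concentration.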

T2 sequence (P13569 whole entry G551D): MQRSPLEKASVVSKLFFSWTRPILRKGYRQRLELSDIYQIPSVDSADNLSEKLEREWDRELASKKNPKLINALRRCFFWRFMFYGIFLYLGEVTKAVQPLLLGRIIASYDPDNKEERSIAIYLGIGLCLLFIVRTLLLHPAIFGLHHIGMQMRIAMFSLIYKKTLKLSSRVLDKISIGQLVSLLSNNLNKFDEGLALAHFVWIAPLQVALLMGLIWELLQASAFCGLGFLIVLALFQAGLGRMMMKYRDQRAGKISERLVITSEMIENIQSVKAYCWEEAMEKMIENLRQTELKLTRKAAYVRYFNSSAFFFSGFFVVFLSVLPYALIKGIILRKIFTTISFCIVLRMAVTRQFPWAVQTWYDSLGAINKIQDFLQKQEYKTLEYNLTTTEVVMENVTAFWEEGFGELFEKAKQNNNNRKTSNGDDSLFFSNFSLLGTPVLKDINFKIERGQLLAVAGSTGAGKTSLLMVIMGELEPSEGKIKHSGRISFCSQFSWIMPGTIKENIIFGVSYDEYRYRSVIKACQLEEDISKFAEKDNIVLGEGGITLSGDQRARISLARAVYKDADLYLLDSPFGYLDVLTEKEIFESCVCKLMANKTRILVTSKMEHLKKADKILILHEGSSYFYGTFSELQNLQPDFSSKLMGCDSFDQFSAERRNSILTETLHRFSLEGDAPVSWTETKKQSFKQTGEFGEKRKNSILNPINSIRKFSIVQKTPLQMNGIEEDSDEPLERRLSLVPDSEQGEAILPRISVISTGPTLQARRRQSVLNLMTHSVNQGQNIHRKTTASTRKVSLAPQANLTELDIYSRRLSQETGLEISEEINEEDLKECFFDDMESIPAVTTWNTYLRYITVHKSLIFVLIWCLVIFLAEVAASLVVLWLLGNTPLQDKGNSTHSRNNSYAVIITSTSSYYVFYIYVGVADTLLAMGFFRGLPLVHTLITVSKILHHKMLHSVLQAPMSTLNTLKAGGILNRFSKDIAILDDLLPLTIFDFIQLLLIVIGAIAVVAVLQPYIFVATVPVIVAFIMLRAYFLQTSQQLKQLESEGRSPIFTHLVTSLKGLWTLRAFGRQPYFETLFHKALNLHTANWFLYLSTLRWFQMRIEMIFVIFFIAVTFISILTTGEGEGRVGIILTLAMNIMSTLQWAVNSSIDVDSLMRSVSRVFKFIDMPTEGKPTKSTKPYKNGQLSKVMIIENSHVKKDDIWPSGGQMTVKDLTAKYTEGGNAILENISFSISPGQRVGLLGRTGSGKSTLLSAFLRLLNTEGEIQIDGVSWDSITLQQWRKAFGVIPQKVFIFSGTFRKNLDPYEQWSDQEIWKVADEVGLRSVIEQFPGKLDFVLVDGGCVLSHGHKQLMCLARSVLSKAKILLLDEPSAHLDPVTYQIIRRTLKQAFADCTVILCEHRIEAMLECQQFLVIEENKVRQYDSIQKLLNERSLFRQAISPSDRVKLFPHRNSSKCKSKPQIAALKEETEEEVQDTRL
T1 sequence (P13569 with tags, fused parts or gaps DEL508-508): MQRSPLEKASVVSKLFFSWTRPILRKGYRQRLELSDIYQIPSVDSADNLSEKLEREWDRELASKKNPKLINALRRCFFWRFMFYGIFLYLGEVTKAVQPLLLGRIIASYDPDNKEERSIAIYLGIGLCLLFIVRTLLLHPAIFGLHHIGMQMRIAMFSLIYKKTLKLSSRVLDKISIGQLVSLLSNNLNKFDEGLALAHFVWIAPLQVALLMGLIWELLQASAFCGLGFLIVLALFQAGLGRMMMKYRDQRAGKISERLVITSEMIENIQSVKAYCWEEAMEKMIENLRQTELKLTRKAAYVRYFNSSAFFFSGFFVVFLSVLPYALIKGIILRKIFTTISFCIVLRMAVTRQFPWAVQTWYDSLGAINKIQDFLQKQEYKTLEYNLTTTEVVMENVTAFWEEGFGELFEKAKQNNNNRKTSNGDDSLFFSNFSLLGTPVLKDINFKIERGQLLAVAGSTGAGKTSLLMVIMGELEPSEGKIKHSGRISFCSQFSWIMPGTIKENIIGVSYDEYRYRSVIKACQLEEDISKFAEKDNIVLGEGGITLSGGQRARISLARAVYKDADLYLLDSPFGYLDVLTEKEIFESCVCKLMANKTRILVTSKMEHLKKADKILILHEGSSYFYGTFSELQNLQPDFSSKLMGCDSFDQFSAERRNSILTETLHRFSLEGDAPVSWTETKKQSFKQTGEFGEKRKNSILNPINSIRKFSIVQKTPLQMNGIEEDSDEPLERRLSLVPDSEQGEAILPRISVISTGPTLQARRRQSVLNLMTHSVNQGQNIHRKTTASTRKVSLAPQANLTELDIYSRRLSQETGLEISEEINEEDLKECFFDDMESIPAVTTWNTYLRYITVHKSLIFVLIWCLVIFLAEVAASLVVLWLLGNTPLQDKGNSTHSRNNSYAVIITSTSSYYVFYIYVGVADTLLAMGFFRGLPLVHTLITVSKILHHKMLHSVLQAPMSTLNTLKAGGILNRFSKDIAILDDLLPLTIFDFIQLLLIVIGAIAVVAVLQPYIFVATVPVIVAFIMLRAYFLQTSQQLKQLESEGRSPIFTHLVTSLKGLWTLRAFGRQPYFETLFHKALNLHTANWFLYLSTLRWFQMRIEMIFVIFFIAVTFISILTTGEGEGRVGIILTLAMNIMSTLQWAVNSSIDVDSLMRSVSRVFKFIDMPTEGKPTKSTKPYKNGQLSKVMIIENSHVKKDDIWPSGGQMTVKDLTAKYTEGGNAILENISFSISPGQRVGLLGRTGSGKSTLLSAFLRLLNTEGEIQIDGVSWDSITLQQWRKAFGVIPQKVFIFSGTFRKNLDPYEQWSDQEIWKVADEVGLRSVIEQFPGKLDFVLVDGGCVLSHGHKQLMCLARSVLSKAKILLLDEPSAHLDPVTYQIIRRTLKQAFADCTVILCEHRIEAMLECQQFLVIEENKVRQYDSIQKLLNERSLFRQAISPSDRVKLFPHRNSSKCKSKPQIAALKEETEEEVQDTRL

Compound | % Activation (CFTR ΔF508 mutant) [%] | EC50 (CFTR ΔF508 mutant) [nM] | % Activation (CFTR G551D mutant) [%] | EC50 (CFTR G551D mutant) [nM]
Nc1cc(S(=O)(=O)c2ccc(C(F)(F)F)cc2)cnc1C(=O)NC[C@H]1CCOC1 [Compound 101, 3-amino-N-[(3R)-tetrahydrofuran-3-ylmethyl]-5-{[4-(trifluoromethyl)phenyl]sulfonyl}pyridine-2-carboxamide] | 106.5 | 64.2 | 71.2 | 1580
CC1(C)CN(C(=O)c2ncc(S(=O)(=O)c3ccc(OC(F)(F)F)cc3F)cc2N)C1 [Compound 134, (3-amino-5-{[2-fluoro-4-(trifluoromethoxy)phenyl]sulfonyl}pyridin-2-yl)(3,3-dimethylazetidin-1-yl)methanone] | 101.6 | 43.5 | 76.8 | 1130
Nc1cc(S(=O)(=O)c2ccc(C(F)(F)F)cc2)cnc1C(=O)N1CC(C(F)(F)F)C1 [Compound 157, (3-amino-5-{[4-(trifluoromethyl)phenyl]sulfonyl}pyridin-2-yl)[3-(trifluoromethyl)azetidin-1-yl]methanone] | 101.2 | 33.7 | 28.8 | > 10000
COC1CN(C(=O)c2ncc(S(=O)(=O)c3ccc(OC(F)(F)F)cc3)cc2N)C1 [Compound 42, (3-amino-5-{[4-(trifluoromethoxy)phenyl]sulfonyl}pyridin-2-yl)(3-methoxyazetidin-1-yl)methanone] | 105.5 | 37.1 | 64.3 | > 3330
CC(C)OCC(O)CNC(=O)c1ncc(S(=O)(=O)c2ccc(C(F)(F)F)cc2F)cc1N (stereo not drawn) [Compound 133, 3-amino-5-{[2-fluoro-4-(trifluoromethyl)phenyl]sulfonyl}-N-[2-hydroxy-3-(propan-2-yloxy)propyl]pyridine-2-carboxamide] | 105.9 | 3.7 | 84.2 | 253

Other lines, results leading:

% Activation (CFTR ΔF508 mutant) [%] | EC50 (CFTR ΔF508 mutant) [nM] | % Activation (CFTR G551D mutant) [%] | EC50 (CFTR G551D mutant) [nM] | Compound
58.5 | > 667 | 14.4 | – | Nc1cc(S(=O)(=O)c2ccc(C(F)(F)F)cc2)cnc1C(=O)N[C@@H]1COCC[C@@H]1O [Compound 235, 3-amino-N-[(3R,4S)-4-hydroxytetrahydro-2H-pyran-3-yl]-5-{[4-(trifluoromethyl)phenyl]sulfonyl}pyridine-2-carboxamide]
99.1 | 2.8 | 71.8 | 705 | CN(Cc1ccc(F)cc1)S(=O)(=O)c1cnc(C(=O)NCC(O)C(F)(F)F)c(N)c1 (stereo not drawn) [Compound 187, 3-amino-5-[(4-fluorobenzyl)(methyl)sulfamoyl]-N-(3,3,3-trifluoro-2-hydroxypropyl)pyridine-2-carboxamide]
96.2 | 3 | 83.7 | 172 | Nc1cc(S(=O)(=O)c2ccc(C(F)(F)F)cc2)cnc1C(=O)NC[C@H](O)COCC(F)(F)F [Compound 249, 3-amino-N-[(2S)-2-hydroxy-3-(2,2,2-trifluoroethoxy)propyl]-5-{[4-(trifluoromethyl)phenyl]sulfonyl}pyridine-2-carboxamide]
110.0 | 16.3 | 93.3 | 919 | Nc1cc(S(=O)(=O)c2ccc(OC(F)(F)F)cc2)cnc1C(=O)NC[C@@H](O)COCC1CC1 [Compound 251, 3-amino-N-[(2R)-3-(cyclopropylmethoxy)-2-hydroxypropyl]-5-{[4-(trifluoromethoxy)phenyl]sulfonyl}pyridine-2-carboxamide]
111.1 | 4.4 | 46.6 | 238 | CC(C)C1(O)CN(C(=O)c2ncc(S(=O)(=O)c3ccc(C(F)(F)F)cc3)cc2N)C1 [Compound 159, (3-amino-5-{[4-(trifluoromethyl)phenyl]sulfonyl}pyridin-2-yl)[3-hydroxy-3-(propan-2-yl)azetidin-1-yl]methanone]
